Absorption maximum data for 49 molecules are collected here from the Deep4Chem optical property database.

“And” between values parts separate entries of the source, which are not always exact repeats. Identical values can stand only once.

The data set in a line: solvent given as SMILES.

On to `c1ccc(-c2nc(-c3ccccc3)c(-c3ccccc3)[nH]2)cc1`, for which the absorption maximum is, setting by setting: (in CC#N) 311.5 nm and 312 nm; (in CO) 311.5 nm.

For the setting “in C1CCOC1”, `COC(=O)c1ccc(/C=C/C(F)(F)F)c(N)c1` registered an absorption maximum of 372 nm.

In turn, `CC1=C(Br)C(/C=C/c2ccncc2)=[N+]2C1=C(c1ccccc1)c1c(C)c(Br)c(/C=C/c3ccncc3)n1[B-]2(F)F` gave an absorption maximum (in ClC(Cl)Cl) of 620 nm.

In turn, `c1ccc2c(c1)ccc1ccc3c(c12)-c1c(ccc2ccc4ccccc4c12)C3` yielded an absorption maximum (in ClCCl) of 400 nm.

Consider `C(#Cc1ccc2ncsc2c1)c1ccc(N(c2ccc(C#Cc3ccc4ncsc4c3)cc2)c2ccc(C#Cc3ccc4ncsc4c3)cc2)cc1`, for which the absorption maximum (in Cc1ccccc1) is 380 nm.

Take `O=P1(c2ccccc2)C(c2ccc(N(c3ccccc3)c3ccccc3)cc2)=Cc2ccccc21` (configuration not stated): the absorption maximum (in C1CCOC1) is given as 408 nm; the absorption maximum (in CC#N) is recorded as 407 nm; the absorption maximum (in CN(C)C=O) is recorded as 410 nm; the absorption maximum (in Cc1ccccc1) is on record as 413 nm; the absorption maximum (in ClC(Cl)Cl) is on record as 418 nm; the absorption maximum (in ClCCl) was determined as 415 nm.

Under “in Cc1ccccc1”, `c1cc2ccc3ccc4cc3c2cc1c1ccc2c(c1)c1cc(ccc1[C@]13OCCO[C@]21OCCO3)c1ccc2c(c1)c1cc4ccc1[C@]13OCCO[C@]21OCCO3` had an absorption maximum of 353 nm.

As for `O=c1oc2ccc(Br)cc2cc1-c1cc2cc(Br)ccc2o1`, the absorption maximum (in CC#N) is on record as 370 nm; the absorption maximum (in CCOC(C)=O) came out at 371 nm; the absorption maximum (in CS(C)=O) was 374 nm; the absorption maximum (in Cc1ccccc1) is listed as 377 nm; the absorption maximum (in O) is reported as 331 nm.

In the case of `C=Cc1cccc(OC)c1`, where the note is “in C1CCCCC1”, the absorption maximum turned out to be 295 nm.

For the molecule `CC1=[N+]2C(=C(Oc3cc(C)c4c(c3)CC[C@@](C)(CCC[C@H](C)CCC[C@H](C)CCCC(C)C)O4)c3ccc(C)n3[B-]2(F)F)C=C1c1cc2n(c1)[B-](F)(F)[N+]1=CC=CC1=C2c1c(C)cc(C)cc1C`, the absorption maximum is 570.5 nm (in C1CCCCC1) and 575 nm (in CCOC(C)=O).

With `COc1ccc2c(c1)CCC1=C(C#Cc3ccc(Cl)cc3)O[B-](F)(F)[O+]=C12`, the absorption maximum (in ClCCl) turned out to be 445 nm.

For `Nc1nc2ccc(F)cc2[n+]([O-])n1`, the absorption maximum is listed as 415 nm (in CC#N) and 422 nm (in O).

On to `N#Cc1nn(-c2ccc(F)cc2)nc1N1CCCC1`, for which, for the setting “in CC#N”, the absorption maximum is given as 340 nm.

Where the note is “in Cc1ccccc1”, `CC(C)c1cccc(C(C)C)c1N1C(=O)c2cc(Cl)c3c4c(Cl)cc5c6c(cc(Cl)c(c7c(Cl)cc(c2c37)C1=O)c64)C(=O)N(c1c(C(C)C)cccc1C(C)C)C5=O` registered an absorption maximum of 523 nm.

With `Cc1c(C)c(-c2cccnc2)c(C)c(C)c1B(c1c(C)c(C)c(-c2cccnc2)c(C)c1C)c1c(C)c(C)c(-c2cccnc2)c(C)c1C`, the absorption maximum (in ClCCl) amounted to 330 nm.

Molecule `CCCCCCCCCCOc1ccc(C#Cc2cc3c(C#Cc4ccc(OCCCCCCCCCC)cc4)c(C#Cc4ccc(OCCCCCCCCCC)cc4)c4cc(C#Cc5ccc(OCCCCCCCCCC)cc5)cc5c(C#Cc6ccc(OCCCCCCCCCC)cc6)c(C#Cc6ccc(OCCCCCCCCCC)cc6)c(c2)c3c45)cc1` showed an absorption maximum (in ClCCl) of 421 nm.

With `CC(=O)Nc1ccc(C2=C/C(=C\c3ccc([N+](=O)[O-])cc3)C(=O)O2)cc1`, the absorption maximum (in C1COCCO1) is 438 nm.

Turning to `CCN(CC)c1ccc2cc(-c3csc(N)c3C#N)c(=O)oc2c1`, the absorption maximum reads like this: (in C1CCOC1) 403 nm; (in CO) 406 nm; (in CS(C)=O) 406 nm; (in Cc1ccccc1) 403 nm; (in ClCCl) 407 nm.

Regarding `COc1cc2c(cc1/C=C(\C#N)c1nc3ccccc3s1)c1ccccc1n2C`, the absorption maximum came to 433 nm (in C1CCOC1); 431 nm (in CC#N); 430 nm (in CCOC(C)=O); 439 nm (in CN(C)C=O); 437 nm (in CO); 443 nm (in CS(C)=O). For the same molecule, the absorption maximum was determined as 431 nm (in Cc1ccccc1), 434 nm (in ClC(Cl)Cl) and 435 nm (in ClCCl).

Turning to `COc1ccc(NC(=O)C(C(=O)Nc2ccc(OC)cc2)C(c2ccccc2O)c2c(C)[nH]c3ccccc23)cc1` (configuration not stated), the absorption maximum runs as follows: (in CO) 258 nm; (in CS(C)=O) 266 nm.

For the setting “in CCCCCC”, `CO` had an absorption maximum of 177 nm.

Turning to `CC(C)n1c(=O)c2cc3ccc4cccc5ccc(c2c1=O)c3c45`, the absorption maximum (in ClC(Cl)Cl) was found to be 427 nm.

On to `CC(C)CCCC(C)CCN1C(=O)c2ccc3c(-c4ccccc4)c4c5ccc6c7c(ccc(c(-c8ccccc8)c4c4ccc(c2c34)C1=O)c75)C(=O)N(CCC(C)CCCC(C)C)C6=O` (configuration not stated), for which the absorption maximum (in ClCCl) is given as 630 nm.

Consider `CCCCCCCCC1(CCCCCCCC)c2cc(C#Cc3ccc(N(c4ccccc4)c4ccccc4)cc3)ccc2-c2ccc(C=O)cc21`, for which the absorption maximum reads like this: (in C1CCOC1) 378 nm; (in C1COCCO1) 381 nm; (in CC#N) 378 nm; (in CC(C)=O) 373 nm; (in CCOC(C)=O) 376 nm; (in CN(C)C=O) 380 nm. The absorption maximum runs as follows: (in CS(C)=O) 381 nm; (in Cc1ccccc1) 388 nm; (in ClC(Cl)Cl) 386 nm; (in ClCCl) 384 nm.

Molecule `COc1ccccc1-c1nc2c([nH]1)C1=CC(=O)S[C@]1(C)[C@@]1(C)SC(=O)C=C21` showed an absorption maximum (in CC#N) of 390 nm.

`CCNc1cc2oc(=O)cc(C(F)(F)F)c2cc1C` came in with an absorption maximum (in CC#N) of 383 nm.

As to `CC(C)=NO`, the absorption maximum (in CCO) was determined as 193 nm.

The molecule `CCCN1c2ccc(C3=C4C=CC=[N+]4[B-](F)(F)n4cccc43)cc2Sc2cc(C3=C4C=CC=[N+]4[B-](F)(F)n4cccc43)ccc21` had an absorption maximum (in ClCCl) of 500 nm.

With `CC(C)(C)C1Nc2ccccc2C(=O)N1c1ccccc1` (configuration not stated), the absorption maximum is, setting by setting: (in CC#N) 348 nm; (in CCCCCCCCCCCCCCCC) 337 nm; (in CO) 356 nm; (in ClC(Cl)Cl) 344 nm; (in c1ccccc1) 343 nm.

Regarding `CCN(CC)c1ccc(/C=N/C2CCCCC2/N=C/c2ccc(N(CC)CC)cc2O)c(O)c1` (configuration not stated), the absorption maximum runs as follows: (in CC#N) 376 nm; (in CN(C)C=O) 410 nm; (in ClCCl) 403 nm.

In the case of `COc1nnc(Cl)nn1`, the absorption maximum is, setting by setting: (in ClCCl) 520 nm; (in OCC(F)(F)F) 518 nm.

`CCCCN1C(=O)C2=C(c3ccc(-c4ccc5c(c4)C(C)(C)c4ccccc4-5)cc3)NC(=O)C2=C1c1ccc(-c2ccc3c(c2)C(C)(C)c2ccccc2-3)cc1` registered an absorption maximum (in ClCCl) of 497 nm.

`F[Si](c1ccccc1)(c1ccccc1)c1c2ccccc2cc2ccccc12` registered an absorption maximum (in C1CCOC1) of 393 nm and an absorption maximum (in ClC(Cl)Cl) of 394 nm.

As for `N#C/C(=C\c1cn(-c2ccccc2)nc1-c1ccc([N+](=O)[O-])cc1)c1nc2ccccc2s1`, the absorption maximum is recorded as 378 nm (in C1CCOC1); 379 nm (in C1COCCO1); 375 nm (in CCOC(C)=O); 376 nm (in CN(C)C=O); 375 nm (in CS(C)=O); 383 nm (in Cc1ccccc1). The same molecule yielded an absorption maximum (in ClC(Cl)Cl) of 382 nm.

Take `CN1C(C(=O)Nc2ccccn2)=C(O)c2sccc2S1(=O)=O`: the absorption maximum runs as follows: (in C1COCCO1) 344 nm; (in CC#N) 355 nm; (in CCCCO) 350 nm; (in CCCO) 350 nm; (in CCO) 351 nm; (in CCOC(C)=O) 342 nm. The molecule also gave an absorption maximum (in CO) of 354 nm.

Where the note is “in ClCCl”, `COc1cccc(OC)c1-c1c2ccc(=[N+]3CCCCC3)cc-2oc2cc(N3CCCCC3)ccc12` gave an absorption maximum of 565 nm.

`CN1c2cc3nc4cc(F)c(F)cc4nc3cc2N(C)C1(C)C` displayed an absorption maximum (in CCO) of 457 nm.

Under “in CN(C)C=O”, `CCN(CC)c1ccc(/C=C2\CC/C(=C\c3ccc(N(c4ccc(/C=C5\CC/C(=C\c6ccc(N(CC)CC)cc6)C5=C(C#N)C#N)cc4)c4ccc(/C=C5\CC/C(=C\c6ccc(N(CC)CC)cc6)C5=C(C#N)C#N)cc4)cc3)C2=C(C#N)C#N)cc1` showed an absorption maximum of 590 nm.

In the case of `c1ccc2c(c1)Oc1ccccc1N2c1ccc2c(c1)c1ccccc1n1ccnc21`, the absorption maximum (in Cc1ccccc1) turned out to be 376 nm.

For the setting “in CC(C)(C)c1ccc(-n2c3ccc([Si](c4ccccc4)(c4ccccc4)c4ccccc4)cc3c3cc([Si](c4ccccc4)(c4ccccc4)c4ccccc4)ccc32)cc1”, `Cc1cc(C)c(C)c(B(c2c(C)c(C)cc(C)c2C)c2c(C)c(C)c(N3c4ccccc4Oc4ccccc43)c(C)c2C)c1C` gave an absorption maximum of 373 nm.

As to `CCc1s[c+](N2CCCCC2)sc1-c1cc(C)cc(I)c1[O-]`, the absorption maximum is 409 nm (in C1CCOC1), 405 nm (in CC#N), 360 nm (in CO) and 406 nm (in ClCCl).

Consider `CN(C)c1ccc2ccc3oc(=O)c(-c4ccccc4)nc3c2c1`, for which the absorption maximum (in c1ccccc1) came to 474 nm.

For `CC(C)c1cc(C(C)C)c(B2c3ccccc3Oc3cc(N4c5ccccc5C5(c6ccccc6Oc6ccccc65)c5ccccc54)ccc32)c(C(C)C)c1`, for the setting “in Cc1ccccc1”, the absorption maximum is given as 429 nm.

In turn, `Cc1cc2c(cc1C)NC(=O)CC(=O)N2` showed an absorption maximum (in CS(C)=O) of 297 nm.

Under “in ClC(Cl)Cl”, `CC1(C)c2ccccc2-c2ccc(N3c4ccc(-c5ccc(/C=C6\C(=O)c7ccc(C(=O)O)cc7C6=O)s5)cc4C4CCCC43)cc21` (configuration not stated) showed an absorption maximum of 608 nm.

For the molecule `c1ccc(-c2ccc(-c3ccc(-c4ccccc4)cc3)cc2)cc1`, the absorption maximum runs as follows: (in C1CCOC1) 299 nm; (in C1COCCO1) 310 nm.

`CCCCCCCCn1c(=O)c2cc3cc4cc5c(=O)n(CCCCCCCC)c(=O)c5cc4cc3cc2c1=O` gave an absorption maximum (in ClC(Cl)Cl) of 421 nm.

In the case of `O=C1CC(c2ccc([N+](=O)[O-])cc2)c2c(c3ccccc3c3nc4ccccc4nc23)O1` (configuration not stated), where the note is “in ClC(Cl)Cl”, the absorption maximum was determined as 408 nm.

For the molecule `CC[n+]1c(-c2ccccc2)c2cc(N)ccc2c2ccc(N)cc21`, the absorption maximum (in O) turned out to be 480 nm.
